Measurements as given in ChEMBL document CHEMBL3232851 (Bioorg Med Chem, 2014).

What was measured:
[1] = target: T1, Prostaglandin G/H synthase 1 (Ovis aries, UniProt P05979); assay: Inhibition of purified ovine COX-1 by enzyme immunoassay
T1 sequence (P05979 whole entry): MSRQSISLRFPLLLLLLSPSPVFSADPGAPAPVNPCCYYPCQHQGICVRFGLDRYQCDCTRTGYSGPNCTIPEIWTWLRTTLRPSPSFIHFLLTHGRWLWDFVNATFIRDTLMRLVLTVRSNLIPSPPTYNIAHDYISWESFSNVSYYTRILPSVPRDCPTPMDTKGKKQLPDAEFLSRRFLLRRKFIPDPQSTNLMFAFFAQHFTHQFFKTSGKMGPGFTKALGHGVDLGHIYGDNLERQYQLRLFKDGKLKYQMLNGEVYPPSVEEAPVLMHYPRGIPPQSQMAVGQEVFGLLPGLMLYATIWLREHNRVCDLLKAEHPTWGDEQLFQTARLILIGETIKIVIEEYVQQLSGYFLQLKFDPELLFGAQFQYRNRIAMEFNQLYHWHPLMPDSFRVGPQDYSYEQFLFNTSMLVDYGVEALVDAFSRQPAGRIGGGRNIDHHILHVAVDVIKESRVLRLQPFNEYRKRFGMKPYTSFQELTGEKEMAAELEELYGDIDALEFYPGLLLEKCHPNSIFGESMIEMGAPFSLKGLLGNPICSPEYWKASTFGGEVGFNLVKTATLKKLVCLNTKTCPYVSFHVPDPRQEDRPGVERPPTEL

[2] = target: T2, Prostaglandin G/H synthase 2 (Homo sapiens, UniProt P35354); assay: Inhibition of human recombinant COX-2 by enzyme immunoassay
T2 sequence (P35354 whole entry): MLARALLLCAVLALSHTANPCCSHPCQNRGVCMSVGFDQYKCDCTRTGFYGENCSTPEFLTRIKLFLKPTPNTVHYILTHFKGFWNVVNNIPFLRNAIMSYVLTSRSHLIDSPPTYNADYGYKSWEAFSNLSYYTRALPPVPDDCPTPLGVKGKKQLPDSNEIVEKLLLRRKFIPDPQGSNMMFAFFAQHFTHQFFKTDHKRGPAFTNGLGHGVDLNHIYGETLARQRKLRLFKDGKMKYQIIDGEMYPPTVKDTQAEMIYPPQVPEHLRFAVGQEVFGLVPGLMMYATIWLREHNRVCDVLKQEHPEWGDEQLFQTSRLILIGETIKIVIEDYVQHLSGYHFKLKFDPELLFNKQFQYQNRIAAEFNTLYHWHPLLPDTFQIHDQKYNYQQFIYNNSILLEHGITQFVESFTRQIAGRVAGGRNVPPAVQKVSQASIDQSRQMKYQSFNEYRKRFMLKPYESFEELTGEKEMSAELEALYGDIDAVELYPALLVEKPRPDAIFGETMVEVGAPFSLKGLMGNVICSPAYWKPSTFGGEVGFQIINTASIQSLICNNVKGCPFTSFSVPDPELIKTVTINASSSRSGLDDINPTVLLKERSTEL

[3] = test system: COX-2; assay: Ratio of EC50 for membrane permeabilization to IC50 for human recombinant COX-2
[4] = Membrane permeabilizing activity of the compound in calcein-loaded egg phosphatidylcholine liposomes assessed as release of calcein from liposomes at pH 6.8 after 10 mins by fluorescence assay; format: ADME, Microsome

Compound	IC50 [1] [µM]	IC50 [2] [µM]	calcein release EC50/COX-2 IC50 ratio [3]	EC50 [4] [µM]
CS(=O)(=O)c1ccc(-n2nc(C(F)(F)F)cc2-c2ccccc2)cc1	> 500	6.84	0.19	1300
Cc1ccc(-c2cc(C(F)(F)F)nn2-c2ccc(S(N)(=O)=O)cc2)cc1 [CELECOXIB]	–	–	–	50
Cc1ccc(-c2cc(C(F)(F)F)nn2-c2ccc(S(C)(=O)=O)cc2)cc1	> 500	0.13	11.1	1440

Now from value to molecule:

IC50 [1] [µM]	IC50 [2] [µM]	calcein release EC50/COX-2 IC50 ratio [3]	EC50 [4] [µM]	Compound
385	0.11	0.22	24	Cc1ccc(C2=C(c3ccc(S(N)(=O)=O)cc3)COC2=O)cc1
–	–	–	12600	CS(=O)(=O)c1ccc(C2=C(c3ccccc3)C(=O)OC2)cc1 [ROFECOXIB]
> 500	0.3	20.8	6230	Cc1ccc(C2=C(c3ccc(S(C)(=O)=O)cc3)COC2=O)cc1
–	–	–	480	NS(=O)(=O)c1ccc(C2=C(c3ccccc3)C(=O)OC2)cc1
